The text below walks through data of PMC5863496, “Mesobuthus Venom-Derived Antimicrobial Peptides Possess Intrinsic Multifunctionality and Differential Potential as Drugs” (Frontiers in Microbiology, 2018).

Ends that are not written are not given here.

Experiment in all cases: Inhibition-zone assay (CL)
Holding throughout (assay type): cell-based

The test system of experiment [1] is Staphylococcus aureus J700. The following applies: SA J700, N.A. = no activity at 0.8 nmol peptide each well. Here is the method: (§1) The antimicrobial activity of seven peptides, including MeuFSPL-1, MeuFSPL-2, Marmelittin, Melittin, Meucin-22, Marcin-22, and MeuTXKβ1, was evaluated by the inhibition-zone assay previously described in our studies (Hultmark, [1998]; Zhu et al., [2012a]; Zhu and Gao, [2014]). Temperatures used were 30 or 37°C for bacteria or 28°C for fungi. Media used were Luria-Bertani (LB) Broth (10 g tryptone, 5 g yeast extract, and 5 g NaCl in 1 l of water) or Nutrient Broth (10 g peptone, 5 g beef extract powder, and 5 g NaCl in 1 l of water) or GYM(Isp2) (4 g yeast extract, 10 g malt extract, 4 g glucose, 2 g CaCO3 in 1 l of water) for bacteria or Potato Dextrose Broth (200 g patato and 20 g glucose in 1 l of water) for fungi. To make plates, 10 μl of microbial culture (~2 × 10^6 bacterial cells or fungal spores/ml) were mixed in 6 ml of medium containing 0.8% agar and poured into Peri dishes of 9.0 cm diameter. Wells with a diameter of 2 mm were punched into the medium, filled with 2 μl of sample each well. In this assay, three different doses of peptides were applied to three independent wells in one standard bacterial plate. After incubation overnight, inhibition zones were measured and used to calculate lethal concentrations (CL), a concentration just sufficient to inhibit bacterial growth (Hultmark, [1998]; Gao et al., [2009]). CL values are calculated from a plot of d^2 against log n, where d is the diameter (in cm) and n is the amount of sample applied in the well (in nmol). The plot is linear and thus CL can be calculated from the slope (k) and the intercept (m) of this plot. The formula used here is CL = 2.93/ak10^m/k, where “a” is the thickness of the bacterial plate and “CL” is in μM.

The test system of experiment [2] is Staphylococcus aureus J685. The conditions noted are these: SA J685, N.A. = no activity at 0.8 nmol peptide each well. Here is the method: as §1
For experiment [3], the system named is Staphylococcus aureus J698. The following applies: SA J698, N.A. = no activity at 0.8 nmol peptide each well. Here is the method:
as §1

Experiment [4] deals with methicillin-resistant Staphylococcus aureus P1374. The conditions noted are these: MRSA P1374, N.A. = no activity at 0.8 nmol peptide each well. Here is the method: as §1
The subject of another experiment is Escherichia coli D. G2b. The following applies: EC D. G2b, N.A. = no activity at 0.8 nmol peptide each well. Here is the method: as §1
For experiment [5], the system named is Streptococcus mutans ATCC 1.2499. The conditions noted are these: SM ATCC 1.2499, N.A. = no activity at 0.8 nmol peptide each well. The method, then:
as §1

Experiment [6] has as its system penicillin-sensitive Staphylococcus epidermidis P1111. The conditions noted are these: PSSE P1111, N.A. = no activity at 0.8 nmol peptide each well. The method, then: as §1
For experiment [7], the system named is methicillin-resistant coagulase-negative Staphylococcus P1369. The conditions noted are these: MRCNS P1369, N.A. = no activity at 0.8 nmol peptide each well. Here is the method:
as §1

In experiment [8] the test system is penicillin-resistant Staphylococcus epidermidis P1389. The conditions noted are these: PRSE P1389, N.A. = no activity at 0.8 nmol peptide each well. The method, then: as §1
Experiment [9] deals with Escherichia coli CIP. J14b. The conditions noted are these: EC CIP. J14b, N.A. = no activity at 0.8 nmol peptide each well. The method, then:
as §1

Experiment [10] deals with Escherichia coli Am. J16c. The conditions noted are these: EC Am. J16c, N.A. = no activity at 0.8 nmol peptide each well. The method, then: as §1
The test system of experiment [11] is Streptococcus salivarius ATCC 1.2498. The conditions noted are these: SSAL ATCC 1.2498, N.A. = no activity at 0.8 nmol peptide each well. Here is the method:
as §1

The test system of experiment [12] is Escherichia coli ATCC 25922. The following applies: EC ATCC 25922, N.A. = no activity at 0.8 nmol peptide each well. The method, then:
as §1

Experiment [13] concerns Streptococcus sanguinis ATCC 1.2497. The conditions noted are these: SSAN ATCC 1.2497, N.A. = no activity at 0.8 nmol peptide each well. Here is the method:
as §1

For experiment [14], the system named is penicillin-resistant Staphylococcus aureus P1383. The following applies: PRSA P1383; inhibition-zone assay; N.A. = no activity at 0.8 nmol peptide each well. The method, then: as §1
In experiment [15] the test system is Micrococcus luteus CGMCC 1.0290. The following applies: ML CGMCC 1.0290, N.A. = no activity at 0.8 nmol peptide each well. Here is the method: as §1
Experiment [16] has as its system Staphylococcus warneri ATCC 1.2824. The conditions noted are these: SW ATCC 1.2824, N.A. = no activity at 0.8 nmol peptide each well. Here is the method:
as §1

The test system of experiment [17] is methicillin-sensitive Staphylococcus aureus CGMCC 1.89. The conditions noted are these: MSSA CGMCC 1.89, N.A. = no activity at 0.8 nmol peptide each well. The method, then:
as §1

The subject of experiment [18] is Bacillus megaterium CGMCC 1.0459. The conditions noted are these: BM CGMCC 1.0459, N.A. = no activity at 0.8 nmol peptide each well. Here is the method:
as §1

In experiment [19] the test system is methicillin-resistant Staphylococcus aureus P1386. The conditions noted are these: MRSA P1386, N.A. = no activity at 0.8 nmol peptide each well. The method, then: as §1
For experiment [20], the system named is Escherichia coli Am. J23a. The following applies: EC Am. J23a, N.A. = no activity at 0.8 nmol peptide each well. The method, then:
as §1

For experiment [21], the system named is Stenotrophomonas maltophilia CGMCC 1.1788. The conditions noted are these: SMAL CGMCC 1.1788, N.A. = no activity at 0.8 nmol peptide each well. Here is the method: as §1
Experiment [22] deals with Bacillus subtilis CGMCC 1.2428. The conditions noted are these: BS CGMCC 1.2428, N.A. = no activity at 0.8 nmol peptide each well. The method, then: as §1

Consider FFGHLFKLATKIIPSFFRRKNQ [MAC-22], for which the “Lethal concentration (CL)” value in experiment [1] was 2.39 µM; in experiment [2] it was 2.39 µM; in experiment [3] it was 2.39 µM; in [4] it was 1.35 µM; in the experiment with Escherichia coli D. G2b, 12.95 µM; in experiment [5] it was 4.22 µM. Moreover, the “Lethal concentration (CL)” value is 1.35 µM in experiment [6]; 1.35 µM in [7]; 3.72 µM in experiment [8]; 12.03 µM in experiment [9]; 15.15 µM in [10]; 4.22 µM in [11]. Further, the “Lethal concentration (CL)” value in experiment [12] is 10.69 µM; in [13], 9.12 µM; in [14] it was 2.11 µM; in experiment [15] it was 2.58 µM; in experiment [16] it was 4.45 µM; in experiment [17], 1.35 µM. In addition, the “Lethal concentration (CL)” value stood at 1.35 µM in [18]; 1.35 µM in [19]; 12.70 µM in experiment [20]; 6.78 µM in experiment [21]; 2.11 µM in experiment [22].
Consider FFGHLFKLATKIIPSLFQRKKE [MUC-22], for which the “Lethal concentration (CL)” value came out at 2.66 µM in [1]; 2.66 µM in experiment [2]; 2.66 µM in experiment [3]; 0.87 µM in [4]; 9.93 µM in the experiment on Escherichia coli D. G2b; 2.39 µM in experiment [5]. Moreover, the “Lethal concentration (CL)” value in [6] stood at 1.61 µM; in experiment [7] it was 2.21 µM; in experiment [8], 0.56 µM; in [9], 11.65 µM; in experiment [10], 7.49 µM; in [11], 4.22 µM. Further, the “Lethal concentration (CL)” value amounted to 7.95 µM in experiment [12]; 3.37 µM in [13]; 0.87 µM in experiment [14]; 2.71 µM in experiment [15]; 3.76 µM in experiment [16]; 1.35 µM in experiment [17]. Moreover, the “Lethal concentration (CL)” value came out at 3.72 µM in experiment [18]; 1.88 µM in experiment [19]; 7.36 µM in [20]; 3.79 µM in experiment [21]; 1.86 µM in experiment [22].
Regarding FLFSLIPSAISGLISAFKGRRKRDLN-NH2 [MarMEL], the “Lethal concentration (CL)” value in experiment [1] amounted to 10.86 µM; in experiment [2], 8.41 µM; in experiment [3] it was 6.24 µM; in experiment [4], 2.60 µM; in the experiment on Escherichia coli D. G2b, 6.24 µM; in experiment [5], 2.85 µM. For the same substance, the “Lethal concentration (CL)” value in experiment [6] worked out at 4.24 µM; in experiment [7] it was 3.01 µM; in experiment [8], 3.12 µM; in [9] it was 8.41 µM; in experiment [10], 7.75 µM; in experiment [11] it was 4.70 µM. For the same substance, the “Lethal concentration (CL)” value in experiment [12] worked out at 6.41 µM; in experiment [13], 4.70 µM; in [14], 2.35 µM; in experiment [15] it was 1.85 µM; in experiment [16], 0.18 µM; in experiment [17], 4.87 µM. In addition, the “Lethal concentration (CL)” value in experiment [18] was 2.86 µM; in [19], 8.11 µM; in [20] it was 4.69 µM; in experiment [21], 4.14 µM; in experiment [22] it was 3.13 µM.
